Assay results taken from patent US20110172204A1, “COMPOUNDS AND THEIR USE” (TAKEDA PHARMACEUTICAL COMPANY LIMITED, priority 2010, published 2011).

Key:
[1] = molecular target: T1, human H3 receptor (Homo sapiens, UniProt Q9Y5N1); assay: In vitro H3 binding assay (3H-NαMH competition binding); set-up: expressed in transfected cells; conditions: membranes of CHO-K1 cells expressing human H3; inhibition of specific binding of 2 nM 3H-NαMH; read-out: hH3 binding IC50
Protocol: The ability of compounds to bind to the H3 receptor was determined by measuring the reduction in tritiated N-α-methyl-histamine (^3H-NαMH) binding in a competition binding assay. Changes in the levels of bound radio-label were monitored by scintillation counting with a Trilux Microbeta (Perkin Elmer).
Membranes were prepared from CHO-K1 cells stably expressing human H3 receptor; routinely grown as monolayers in Ham's F12 medium (Invitrogen) supplemented with 10% Foetal Clone III (Hyclone), 500 μg/ml G418 (Invitrogen), 5 μg/ml blasticidine S (Invivogen) and 50 μg/ml Gentamicin (Sigma) in 5% CO2 at 37° C. Cells were grown to 80-95% confluency, rinsed once with 1×PBS (Invitrogen) and detached by incubating with 1×PBS containing 0.02% EDTA (Sigma) for 10 minutes at room temperature. Cells were collected by centrifugation at 900×g, 4° C. for 10 minutes. Cells were rinsed once with 1×PBS and re-suspended in ice cold homogenisation buffer (50 mM Tris-HCl (pH 7.4), 2.5 mM EDTA, 5 mM MgCl2, 200 mM Sucrose) at 1×10^7 cells/ml and kept on ice. Cells were homogenised on ice and debris removed by centrifugation at 500×g, 4° C. for 5 minutes. The resulting supernatant was centrifuged at 75,600×g, 4° C. for 60 minutes. Membranes were suspended in homogenisation buffer, protein concentration was determined (BCA Protein Assay kit (Pierce)), diluted to 2.2 mg/ml, dispensed into 1 ml aliquots and stored at −80° C.
Membranes were thawed on ice, sonicated with 4 cycles of 20 pulses (50% amplitude, 0.5 pulse) (UP200S Hielscher) on ice, diluted in assay buffer (50 mM Tris-HCl (pH7.4), 5 mM MgCl2) to 62.5 μg/ml. Compound was serially diluted in DMSO before being diluted 1:10 with assay buffer. 5 μg of membrane in 80 μl of assay buffer was added per well of a 96 well polystyrene plate (Corning). 10 μl of compound was added per well. The assay was initiated by the addition of 10 μl of 20 nM ^3H-NαMH per well and incubated for one hour at room temperature with shaking Total binding was determined in the presence of 1% DMSO and non-specific binding was determined by the inclusion of 1 μM R-α-methyl-histamine (RαMH). Incubations were then filtered through filtermat A (Perkin Elmer) and washed three times with assay buffer. Filtermats were dried at 42° C. for two hours, scintillant added and the level of bound radioactivity determined.
IC50 values for compounds were determined from seven point log scale dose-response studies and represent the concentration of compound required to inhibit 50% of the specific binding of 2 nM ^3H-NαMH (difference between total and non-specific binding). Curves were generated using the average of duplicate wells for each data point and analyzed using nonlinear regression of sigmoidal dose response (variable slope).

[2] = molecular target: T1, human H3 receptor; assay: In vitro H3 functional assay (cAMP response element driven luciferase reporter); assay type: cell-based; set-up: expressed in transfected cells; conditions: CHO(dhfr+)-cre-luc cells expressing human H3; forskolin 1 μM, RαMH 10 nM; read-out: hH3 functional IC50
Protocol: The functional activity of compounds at the H3 receptor was determined by measuring changes in the level of intracellular cAMP using a cAMP response element driven luciferase reporter assay. The changes in luciferase expression were monitored by a luminescence plate reader, Analyst HT (MDS Analytical). Increases in intracellular cAMP were readily detected upon activation of protein kinase A by forskolin (Sigma) and suppression of this response observed with the application of the H3 receptor agonist RαMH (Sigma).
CHO(dhfr^+)-cre-luc cells stably expressing human H3 receptor were routinely grown as monolayers in Minimal Essential Medium α (MEMα) (Invitrogen) supplemented with 10% dialysed FBS (Hyclone), in 5% CO2 at 37° C. 48 hours prior to assay, cells were seeded in clear-base white walled 384-well plates (Corning) at a density of 5000 cells/well. On the day of assay, growth media was removed and replaced with 15 μl of assay buffer (MEMα, 5 mg/ml fatty acid free BSA (Sigma)) per well. Cells were then incubated for 30 minutes at 37° C., 5% CO2. Compound was serially diluted in DMSO before being diluted 1:10 with assay buffer. 2.5 μl of compound diluted in assay buffer was added and cells incubated for 5 minutes at 37° C., 5% CO2. 2.5 μl of each reagent was then added in the following order: RαMH (10 nM), isobutylmethylxanthine (1-methyl-3-(2-methylpropyl)-7H-purine-2,6-dione; IBMX) (500 μM) (Sigma) and forskolin (1 μM). Cells were then incubated for 90 minutes at 37° C., 5% CO2, followed by 30 minutes at room temperature. At the end of incubation 25 μl of Steadylite reagent (Perkin Elmer) was added, plates were sealed and placed on a shaker for 5 minutes. The level of light output to determine the level of luciferase expression was then measured.
IC50 values for compounds were determined from ten point half log scale dose-response studies and represent the concentration of compound required to […] 50% inhibition of forskolin stimulated cells in the presence of RαMH alone. Curves were generated using the average of duplicate wells for each data point and analyzed using nonlinear regression of four parameter dose response.

[3] = molecular target: T2, H3 receptor (Rattus norvegicus, UniProt Q9QYN8); conditions: cited from earlier work
T2 construct: host or cells: living rat (endogenous receptor)
T2 sequence (Q9QYN8 whole entry): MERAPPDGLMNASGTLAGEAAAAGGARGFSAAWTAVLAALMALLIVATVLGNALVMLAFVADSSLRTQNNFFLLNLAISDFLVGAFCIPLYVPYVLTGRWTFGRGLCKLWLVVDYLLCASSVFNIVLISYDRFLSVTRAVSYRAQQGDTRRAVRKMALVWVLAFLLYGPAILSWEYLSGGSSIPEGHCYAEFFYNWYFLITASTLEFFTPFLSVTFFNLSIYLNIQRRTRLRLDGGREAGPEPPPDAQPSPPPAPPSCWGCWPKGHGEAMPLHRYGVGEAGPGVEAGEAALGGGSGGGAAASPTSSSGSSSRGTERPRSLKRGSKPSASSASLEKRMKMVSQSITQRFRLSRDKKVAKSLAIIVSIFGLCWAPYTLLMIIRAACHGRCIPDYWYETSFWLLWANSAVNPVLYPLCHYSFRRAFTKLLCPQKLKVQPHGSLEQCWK

[4] = molecular target: rat H3 receptors (Rattus norvegicus, UniProt Q9QYN8); conditions: cited from earlier work
rat H3 receptors, sequence (Q9QYN8 whole entry): as above

[5] = molecular target: T2, H3 receptor; conditions: cited from earlier work; remark: listed apart in the source
[6] = molecular target: T1, human H3 receptor; conditions: cited from earlier work
[7] = molecular target: T3, H3 receptor (Mus musculus, UniProt P58406); conditions: lean and obese mice; cited from earlier work
T3 construct: host or cells: living mouse (endogenous receptor)
T3 sequence (P58406 whole entry): as the sequence (Q9QYN8 whole entry) above, with T15A, A286T, A290G, R387H, I389V counted along it

[8] = molecular target: T3, H3 receptor; conditions: mice; cited from earlier work
[9] = system: H3 receptor; conditions: a number of acute pain models; cited from earlier work

T1 sequence (Q9Y5N1 whole entry): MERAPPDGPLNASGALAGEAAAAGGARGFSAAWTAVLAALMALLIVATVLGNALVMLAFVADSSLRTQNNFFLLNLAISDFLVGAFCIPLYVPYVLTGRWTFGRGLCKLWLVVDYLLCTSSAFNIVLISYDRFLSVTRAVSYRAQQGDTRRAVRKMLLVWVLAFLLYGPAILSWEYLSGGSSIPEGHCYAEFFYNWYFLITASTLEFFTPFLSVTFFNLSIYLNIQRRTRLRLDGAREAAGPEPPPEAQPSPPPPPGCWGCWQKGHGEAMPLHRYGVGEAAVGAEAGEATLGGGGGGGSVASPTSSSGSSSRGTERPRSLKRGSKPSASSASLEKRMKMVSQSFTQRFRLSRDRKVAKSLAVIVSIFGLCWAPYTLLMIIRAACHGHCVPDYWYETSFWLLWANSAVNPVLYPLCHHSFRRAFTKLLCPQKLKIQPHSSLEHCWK

CO[C@@H]1CCN(c2ncc(C(=O)NCc3ccc4c(c3)CCN(C3CCC3)CC4)cn2)C1 [Example 1, N-[(3-cyclobutyl-2,3,4,5-tetrahydro-1H-3-benzazepin-7-yl)methyl]-2-[(3R)-3-methoxypyrrolidin-1-yl]pyrimidine-5-carboxamide]
IC50 [1]: 0.5 nM | IC50 [2]: 1 nM

CO[C@H]1CCN(c2ncc(C(=O)NCc3ccc4c(c3)CCN(C3CCC3)CC4)cn2)C1 [Example 2, N-[(3-cyclobutyl-2,3,4,5-tetrahydro-1H-3-benzazepin-7-yl)methyl]-2-[(3S)-3-methoxypyrrolidin-1-yl]pyrimidine-5-carboxamide]
IC50 [1]: 2 nM | IC50 [2]: 2 nM

COC1CN(c2ncc(C(=O)NCc3ccc4c(c3)CCN(C3CCC3)CC4)cn2)C1 [Example 3, N-((3-cyclobutyl-2,3,4,5-tetrahydro-1H-3-benzazepin-7-yl)methyl)-2-(3-methoxyazetidin-1-yl)pyrimidine-5-carboxamide]
IC50 [1]: 3 nM | IC50 [2]: 2 nM

O=C(NCc1ccc2c(c1)CCN(C1CCC1)CC2)c1cnc(N2CCC(F)(F)C2)nc1 [Example 4, N-[(3-cyclobutyl-2,3,4,5-tetrahydro-1H-3-benzazepin-7-yl)methyl]-2-(3,3-difluoropyrrolidin-1-yl)pyrimidine-5-carboxamide]
IC50 [1]: 2 nM | IC50 [2]: 3 nM

O=C(NCc1ccc2c(c1)CCN(C1CCC1)CC2)c1cnc(N2CCC(F)(F)CC2)nc1 [Example 5, N-((3-cyclobutyl-2,3,4,5-tetrahydro-1H-3-benzazepin-7-yl)methyl)-2-(4,4-difluoropiperidin-1-yl)pyrimidine-5-carboxamide]
IC50 [1]: 1 nM | IC50 [2]: 3 nM

CO[C@H]1CCN(c2ncc(C(=O)N(C)Cc3ccc4c(c3)CCN(C3CCC3)CC4)cn2)C1 [Example 6, N-[(3-cyclobutyl-2,3,4,5-tetrahydro-1H-3-benzazepin-7-yl)methyl]-2-[(3S)-3-methoxypyrrolidin-1-yl]-N-methylpyrimidine-5-carboxamide]
IC50 [1]: 4 nM | IC50 [2]: 2 nM

CO[C@@H]1CCN(c2ncc(C(=O)N(C)Cc3ccc4c(c3)CCN(C3CCC3)CC4)cn2)C1 [Example 7, N-[(3-cyclobutyl-2,3,4,5-tetrahydro-1H-3-benzazepin-7-yl)methyl]-2-[(3R)-3-methoxypyrrolidin-1-yl]-N-methylpyrimidine-5-carboxamide]
IC50 [1]: 5 nM | IC50 [2]: 6 nM

CO[C@@H](C)CN(C)c1ncc(C(=O)NCc2ccc3c(c2)CCN(C2CCC2)CC3)cn1 [Example 8, N-[(3-cyclobutyl-2,3,4,5-tetrahydro-1H-3-benzazepin-7-yl)methyl]-2-{[(2S)-2-methoxypropyl](methyl)amino}pyrimidine-5-carboxamide]
IC50 [1]: 0.73 nM | IC50 [2]: 2 nM

CO[C@H](C)CN(C)c1ncc(C(=O)NCc2ccc3c(c2)CCN(C2CCC2)CC3)cn1 [Example 9, N-[(3-cyclobutyl-2,3,4,5-tetrahydro-1H-3-benzazepin-7-yl)methyl]-2-{[(2R)-2-methoxypropyl](methyl)amino}pyrimidine-5-carboxamide]
IC50 [1]: 4 nM | IC50 [2]: 8 nM

C[C@H]1CC[C@H](C)N1CCCOc1ccc(-c2ccc(C(=O)N3CCOCC3)cc2)cc1 [Example A-349821]
cognition-enhancing effects [3]: cognition-enhancing effects

CNC(=O)c1cnc(Oc2ccc3c(c2)CCN(C2CCC2)CC3)cn1 [GSK207040]
affinity for rat H3 receptors [4]: high affinity | tactile allodynia [5]: reduced tactile allodynia

CC(C)N1CCCN(C(=O)C2CCN(c3ccc(C(F)(F)F)nc3)CC2)CC1 [GSK334429]
affinity for human H3 receptors [6]: high affinity | affinity for rat H3 receptors [4]: high affinity | tactile allodynia [5]: reduced tactile allodynia

NC(=NCc1ccc(Cl)cc1)SCCCc1cnc[nH]1 [clobenpropit]
energy intake [7]: reducing energy intake | histamine release in the hypothalamus [8]: increases histamine release

S=C(NC1CCCCC1)N1CCC(c2cnc[nH]2)CC1 [thioperamide]
antinociceptive effect [9]: antinociceptive effect
